The target in one series is T1, FimH (Escherichia coli, UniProt Q1R2J4).
T1 construct: endogenous in cells; host or cells: E. coli UTI89 (whole bacteria)
Put plainly: Hemagglutination inhibition (HAI) assay with UTI89 bacteria and guinea pig red blood cells. Also: ranges in brackets are in nM. In kind it is cell-based. The conditions noted are these: HAI titer (EC>90): concentration reducing bacterial agglutination of guinea pig red blood cells by greater than 90%. The procedure: “HAI titer or EC>90” is that concentration of the FimH inhibitor/antagonist which reduces the bacterial agglutination of guinea pig red blood cells by greater than 90%.
The activities of the Examples 1-34 compounds above as FimH antagonists/inhibitors were obtained by the following assay(s), and results are provided in Table 1. Results not provided mean that the activities have not yet been tested.
Hemagglutination Inhibition Assay (HAI)
The hemagglutination inhibition (HAI) assay was performed with UTI89 bacteria and guinea pig red blood cells, as previously described (S. J. Hultgren, W. R. Schwan, A. J. Schaeffer, J. L. Duncan Infect. Immun. 1986, 54, 613-620 and Jarvis, C.; Han, Z.; Kalas, V.; Klein, R.; Pinkner, J. S.; Ford, B.; Binkley, J.; Cusumano, C. K.; Cusumano, Z.; Mydock-McGrane, L.; Hultgren, S. J.; Janetka, J. W., Chem Med Chem 2016, 11, 367-373). Values not listed were not tested.

A short description of series [1]: Rat pharmacokinetics after IV infusion and oral dose (AUC oral, % F, Ue % PO). In kind it is in vivo, Male Wistar Han rats. The settings on record: for DNAUC oral h*uM: PO 5 mg/kg, dose normalized AUC in blood, n = 3; for bioavailability: male, Wistar Han, whole blood, oral bioavailability, PO 5 mg/kg vs IV infusion 1 mg/kg; for Ue% po: percentage of oral dose eliminated unchanged in urine (or estimate from iv urine fraction times oral bioavailability). From the text: General Assays for Obtaining AUC Oral h*μm, % F, and Ue % PO Values
Male Wistar Han rats were purchased from Vital River Laboratory Animal Technology Co. Ltd (Beijing, China). The animals were approx. 6-8 weeks old with body weights of 200-300 g on the dosing date. The animals were housed in a 12-hour light/12-hour dark cycle environment and had free access to food and water. All animals were fed prior to dosing. Studies were approved by the Pharmaron Institutional Animal Care and Use Committee (IACUC).
Test article was administered as an intravenous infusion for 1 hour (1 mg/kg) at 5 mL/kg/h. After 48 h, animals received a single oral dose (5 mg/kg, free form) at a dose volume of 10 mL/kg, respectively. Blood samples were collected at various time points after IV infusion and PO administrations. Urine samples were collected at various time points after IV infusion and PO administrations (for some compounds).
Test article was dissolved in DMSO with vortexing and sonification to obtain a stock solution. An aliquot of the stock solution was mixed with 10% HP-β-CD in saline with vortexing to obtain a solution with concentration at 0.2 mg/mL of test article.
Test article was added into 1% Methyl Cellulose with vortexing and sonication to obtain a homogeneous suspension with concentration at 0.5 mg/mL of test article.
For IV infusion (1 mg/kg) administration, blood samples were collected from each animal at 0, 0.25, 0.5, 0.75, 1, 1.08, 1.25, 1.5, 1.75, 2, 3, 5, 8, 12, 24 hour post-dose.
For PO (5 mg/kg) administration, blood samples were collected from each animal at 0, 0.25, 0.5, 1, 1.5, 2, 3, 4, 6, 8, 12, 24 hour post-dose.
Blood samples (50 μL) were collected from each animal via jugular vein. These blood samples were placed into tubes containing K2EDTA. Whole blood was mixed with same volume of water and inverted several times. The blood samples were stored at −75±15° C. until analysis.
For IV infusion (1 mg/kg) administration, urine samples were collected from each animal at 0-4, 4-8, 8-12, 12-24 hour post-dose.
For PO (5 mg/kg) administration, urine samples were collected (for some compounds) from each animal at 0-4, 4-8, 8-12, 12-24 hour post-dose.
55 μL of standards, 55 μL of QC samples or 55 μL of unknown samples (50 μL of blood or urine with 5 μL 50% acetonitrile) were mixed to 200 μL of acetonitrile containing IS (dexamethasone) to precipitate proteins. Then the samples were vortexed for 30 sec. After centrifugation at 4° C., 4700 rpm for 30 min, and 5 μL of the supernatant was injected into the LC-MS/MS system for quantitative analysis.
Test article blood and urine concentrations for each animal following IV infusion at 1 mg/kg and PO at 5 mg/kg were used to calculate pharmacokinetic parameters by employing a non-compartmental analysis (Phoenix™ WinNonlin® 7.0). The linear trapezoidal algorithm was used for AUC calculation. • AUC oral h*μM: Area under the curve (AUC) of drug concentration in blood vs. time (units: h*μM) following oral administration • % F: Oral bioavailability (%) derived from the ratio of dose-normalized AUC following PO and IV administration • Ue % PO: Percentage of oral dose eliminated unchanged in urine or an estimater of that parameter generated from using the percentage of the iv dose eliminated in the urine times the oral bioavailability

The structures appear in SMILES notation.

In the case of `Cc1cc(-c2cc(C(F)(F)F)ccn2)ccc1[C@@H](C)[C@H]1O[C@H](CO)[C@@H](O)[C@H](O)[C@@H]1O` (single isomer, unassigned) [Example 2], at FimH, the HAI result was ““+++” (50-200)”. Besides, in series [1], the “DNAUC oral h*uM” value was ““++” (0.5 ≤ x ≤ h · μM)”, the bioavailability was over 30% and the Ue% po entry is given as ““++” (0.5 ≤ x ≤ 5%)”.

As for `Cc1cc(-c2cc(F)cc(F)c2)ccc1[C@@H](C)[C@H]1O[C@H](CO)[C@@H](O)[C@H](O)[C@@H]1O` (single isomer, unassigned) [Example 28], the HAI result at FimH is ““+++” (50-200)”. With `C#C[C@@H](c1ccc(-c2cc(F)c(Cl)c(F)c2)cc1C)[C@H]1O[C@H](CO)[C@@H](O)[C@H](O)[C@@H]1O` (single isomer, unassigned) [Example 34], the HAI result on FimH is listed as ““+++” (50-200)”. Regarding `Cc1cc(-c2cnc(C(F)(F)F)cn2)ccc1[C@@H](C)[C@H]1O[C@H](CO)[C@@H](O)[C@H](O)[C@@H]1O` [Example 1, (2R,3S,4R,5S,6R)-2-(Hydroxymethyl)-6-((R)-1-(2-methyl-4-(5-(trifluoromethyl)pyrazin-2-yl)phenyl)ethyl)tetrahydro-2H-pyran-3,4,5-triol], the HAI result on FimH is given as ““++++” (<50)”. In series [1], the “DNAUC oral h*uM” value is reported as ““++” (0.5 ≤ x ≤ h · μM)”, the bioavailability was over 30% and the Ue% po result was ““+++” (>5%)”. In the case of `C[C@H](c1ccc(-c2cnc(C(F)(F)F)cn2)cc1C(F)(F)F)[C@H]1O[C@H](CO)[C@@H](O)[C@H](O)[C@@H]1O` [Example 3, (2R,3S,4R,5S,6R)-2-(hydroxymethyl)-6-((R)-1-(2-(trifluoromethyl)-4-(5-(trifluoromethyl)pyrazin-2-yl)phenyl)ethyl)tetrahydro-2H-pyran-3,4,5-triol], the HAI result on FimH is given as ““++++” (<50)”. In addition, in series [1], the “DNAUC oral h*uM” value is listed as ““+++” (>1 h · μM)”, the bioavailability was over 30% and the Ue% po entry is reported as ““+++” (>5%)”. Consider `Cc1cc(-c2cc(F)cc(F)c2)ccc1[C@@H](CCO)[C@H]1O[C@H](CO)[C@@H](O)[C@H](O)[C@@H]1O` [Example 11], for which the HAI entry at FimH is ““+++” (50-200)”.

With `Cc1cc(-c2cc(F)cc(F)c2)ccc1[C@@H](CO)[C@H]1O[C@H](CO)[C@@H](O)[C@H](O)[C@@H]1O` [Example 12], on FimH, the HAI result is reported as ““+++” (50-200)”. For `C=C[C@H](c1ccc(-c2cc(F)cc(F)c2)cc1C)[C@H]1O[C@H](CO)[C@@H](O)[C@H](O)[C@@H]1O` [Example 13], the HAI result at FimH is recorded as ““++” (201-1000)”. Consider `CC[C@H](c1ccc(-c2cc(F)cc(C#N)c2)cc1C)[C@H]1O[C@H](CO)[C@@H](O)[C@H](O)[C@@H]1O` [Example 17], for which the “DNAUC oral h*uM” value in series [1] is ““+” (<0.5 h · μM)”. In the case of `C=C[C@H](c1ccc(-c2cncc(C#N)c2)cc1C)[C@H]1O[C@H](CO)[C@@H](O)[C@H](O)[C@@H]1O` [Example 20], on FimH, the HAI entry is ““+++” (50-200)”. For `CC[C@H](c1ccc(-c2cnc(C3CC3)cn2)cc1C)[C@H]1O[C@H](CO)[C@@H](O)[C@H](O)[C@@H]1O` [Example 22], the HAI entry at FimH is listed as ““+++” (50-200)”. In the case of `Cc1cc(-c2ccc(C(F)(F)F)cn2)ccc1[C@@H](C)[C@H]1O[C@H](CO)[C@@H](O)[C@H](O)[C@@H]1O` [Example 27], the HAI result at FimH is given as ““+++” (50-200)”. Same read-out and setting: the result for `Cc1cc(-c2cncc(F)c2)ccc1[C@@H](C)[C@H]1O[C@H](CO)[C@@H](O)[C@H](O)[C@@H]1O` [Example 30] reads ““+++” (50-200)”. Regarding `Cc1cc(-c2ccc(C(F)(F)F)nn2)ccc1C(C)[C@H]1O[C@H](CO)[C@@H](O)[C@H](O)[C@@H]1O` (stereo partly shown) [Example 31], the HAI entry on FimH is listed as ““++++” (<50)”.

On to `C[C@H](c1ccc(-c2cc(C(F)(F)F)ccn2)cc1C(F)(F)F)[C@H]1O[C@H](CO)[C@@H](O)[C@H](O)[C@@H]1O` [Example 32], for which the HAI result on FimH is ““+++” (50-200)”. The same measure, in the same setting: to `C[C@H](c1ccc(-c2ccc(C(F)(F)F)cn2)cc1C(F)(F)F)[C@H]1O[C@H](CO)[C@@H](O)[C@H](O)[C@@H]1O` [Example 33] belongs ““+++” (50-200)”.

Values taken from patent US12297223B2, “Compounds” (GLAXOSMITHKLINE INTELLECTUAL PROPERTY DEVELOPMENT LIMITED, priority 2019, dated 2025).
